According to ChEMBL document CHEMBL5352478, “Novel pyridine-containing histone deacetylase inhibitors strongly arrest proliferation, induce apoptosis and modulate miRNAs in cancer cells” (Eur J Med Chem, 2023):

Legend:
K562 = experiment: cells; format: functional, cell-based; conditions: Homo sapiens, K562, 72 h
Histone deacetylase 4 = Histone deacetylase 4 (Homo sapiens, UniProt P56524)
Histone deacetylase 1 = Histone deacetylase 1 (Homo sapiens, UniProt Q13547)
A549 = experiment: cells; format: functional, cell-based; conditions: Homo sapiens, A549, 72 h
Histone deacetylase 3 = Histone deacetylase 3 (Homo sapiens, UniProt O15379)
HCT-116 = experiment: cells; format: functional, cell-based; conditions: Homo sapiens, HCT-116, 72 h
Histone deacetylase 8 [1] = biological target: T1, Histone deacetylase 8 (Homo sapiens, UniProt Q9BY41)
T1 sequence (Q9BY41 whole entry): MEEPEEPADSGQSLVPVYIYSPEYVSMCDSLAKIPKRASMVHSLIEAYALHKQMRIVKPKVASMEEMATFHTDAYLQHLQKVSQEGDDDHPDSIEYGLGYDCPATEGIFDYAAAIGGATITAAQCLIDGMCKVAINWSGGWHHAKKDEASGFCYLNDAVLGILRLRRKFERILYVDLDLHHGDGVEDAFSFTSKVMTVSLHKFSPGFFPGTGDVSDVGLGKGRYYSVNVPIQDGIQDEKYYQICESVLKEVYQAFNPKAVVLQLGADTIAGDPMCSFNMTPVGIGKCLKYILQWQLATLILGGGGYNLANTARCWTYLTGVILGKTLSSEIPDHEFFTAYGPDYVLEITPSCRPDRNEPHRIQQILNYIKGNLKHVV

[2] = biological target: T2, Protein deacetylase HDAC6 (Homo sapiens, UniProt Q9UBN7)
T2 sequence (Q9UBN7 whole entry): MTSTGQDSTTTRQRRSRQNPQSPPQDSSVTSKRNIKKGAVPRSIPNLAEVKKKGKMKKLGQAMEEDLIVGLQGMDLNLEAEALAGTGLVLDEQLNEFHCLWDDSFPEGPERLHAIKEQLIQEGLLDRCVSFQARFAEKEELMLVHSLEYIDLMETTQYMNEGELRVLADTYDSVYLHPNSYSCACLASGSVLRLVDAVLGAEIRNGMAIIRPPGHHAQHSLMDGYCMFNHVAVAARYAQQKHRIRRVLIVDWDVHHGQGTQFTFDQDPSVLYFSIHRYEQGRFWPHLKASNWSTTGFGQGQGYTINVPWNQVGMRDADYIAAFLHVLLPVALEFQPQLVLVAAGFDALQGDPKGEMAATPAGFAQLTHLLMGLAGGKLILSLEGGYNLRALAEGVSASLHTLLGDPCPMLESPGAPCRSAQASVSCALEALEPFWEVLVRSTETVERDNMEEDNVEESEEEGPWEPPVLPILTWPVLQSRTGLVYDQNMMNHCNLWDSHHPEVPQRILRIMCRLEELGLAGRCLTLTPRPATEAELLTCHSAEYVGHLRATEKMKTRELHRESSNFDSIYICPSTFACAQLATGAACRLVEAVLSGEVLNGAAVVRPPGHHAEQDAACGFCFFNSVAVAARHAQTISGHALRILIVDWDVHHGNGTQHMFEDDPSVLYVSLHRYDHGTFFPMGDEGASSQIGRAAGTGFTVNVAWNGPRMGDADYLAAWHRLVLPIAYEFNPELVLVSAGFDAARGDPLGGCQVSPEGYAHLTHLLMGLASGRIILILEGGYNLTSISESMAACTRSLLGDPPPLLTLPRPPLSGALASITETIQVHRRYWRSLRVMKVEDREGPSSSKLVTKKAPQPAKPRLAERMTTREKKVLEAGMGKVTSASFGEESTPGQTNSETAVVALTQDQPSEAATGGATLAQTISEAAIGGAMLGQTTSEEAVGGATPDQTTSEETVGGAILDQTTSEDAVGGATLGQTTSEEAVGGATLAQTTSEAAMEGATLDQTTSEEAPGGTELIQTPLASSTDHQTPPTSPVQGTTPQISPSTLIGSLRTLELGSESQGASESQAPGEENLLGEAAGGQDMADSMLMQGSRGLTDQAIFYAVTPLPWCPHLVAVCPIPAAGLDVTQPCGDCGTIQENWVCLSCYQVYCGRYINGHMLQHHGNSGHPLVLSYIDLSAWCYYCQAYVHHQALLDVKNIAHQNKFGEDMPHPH

U-937 = experiment: Antiproliferative activity against human U-937 cells incubated for 48 hrs; format: functional, cell-based; conditions: U-937, 48 h
NB-4 = experiment: Antiproliferative activity against human NB4 cells incubated for 48 hrs; format: functional, cell-based; conditions: NB-4, 48 h
[3] = Antiproliferative activity against human IMS-M2 cells incubated for 48 hrs; format: functional, cell-based; conditions: IMS-M2, 48 h
KARPAS-299 = experiment: Antiproliferative activity against human KARPAS-299 cells incubated for 48 hrs; format: functional, cell-based; conditions: KARPAS-299, 48 h
HL-60 = experiment: Antiproliferative activity against human HL-60 cells incubated for 48 hrs; format: functional, cell-based; conditions: HL-60, 48 h
Kasumi 1 = experiment: Antiproliferative activity against human Kasumi 1 cells incubated for 48 hrs; format: functional, cell-based; conditions: Kasumi 1, 48 h
MV4-11 = experiment: Antiproliferative activity against human MV4-11 cells incubated for 48 hrs; format: functional, cell-based; conditions: MV4-11, 48 h
OCI-AML-3 = experiment: Antiproliferative activity against human OCI-AML-3 cells incubated for 48 hrs; format: functional, cell-based; conditions: OCI-AML-3, 48 h
OCI-AML2 = experiment: Antiproliferative activity against human OCI-AML2 cells incubated for 48 hrs; format: functional, cell-based; conditions: OCI-AML2, 48 h
Histone deacetylase 8 [4] = biological target: T1, Histone deacetylase 8; remark: listed apart in the source

Histone deacetylase 4, sequence (P56524 whole entry): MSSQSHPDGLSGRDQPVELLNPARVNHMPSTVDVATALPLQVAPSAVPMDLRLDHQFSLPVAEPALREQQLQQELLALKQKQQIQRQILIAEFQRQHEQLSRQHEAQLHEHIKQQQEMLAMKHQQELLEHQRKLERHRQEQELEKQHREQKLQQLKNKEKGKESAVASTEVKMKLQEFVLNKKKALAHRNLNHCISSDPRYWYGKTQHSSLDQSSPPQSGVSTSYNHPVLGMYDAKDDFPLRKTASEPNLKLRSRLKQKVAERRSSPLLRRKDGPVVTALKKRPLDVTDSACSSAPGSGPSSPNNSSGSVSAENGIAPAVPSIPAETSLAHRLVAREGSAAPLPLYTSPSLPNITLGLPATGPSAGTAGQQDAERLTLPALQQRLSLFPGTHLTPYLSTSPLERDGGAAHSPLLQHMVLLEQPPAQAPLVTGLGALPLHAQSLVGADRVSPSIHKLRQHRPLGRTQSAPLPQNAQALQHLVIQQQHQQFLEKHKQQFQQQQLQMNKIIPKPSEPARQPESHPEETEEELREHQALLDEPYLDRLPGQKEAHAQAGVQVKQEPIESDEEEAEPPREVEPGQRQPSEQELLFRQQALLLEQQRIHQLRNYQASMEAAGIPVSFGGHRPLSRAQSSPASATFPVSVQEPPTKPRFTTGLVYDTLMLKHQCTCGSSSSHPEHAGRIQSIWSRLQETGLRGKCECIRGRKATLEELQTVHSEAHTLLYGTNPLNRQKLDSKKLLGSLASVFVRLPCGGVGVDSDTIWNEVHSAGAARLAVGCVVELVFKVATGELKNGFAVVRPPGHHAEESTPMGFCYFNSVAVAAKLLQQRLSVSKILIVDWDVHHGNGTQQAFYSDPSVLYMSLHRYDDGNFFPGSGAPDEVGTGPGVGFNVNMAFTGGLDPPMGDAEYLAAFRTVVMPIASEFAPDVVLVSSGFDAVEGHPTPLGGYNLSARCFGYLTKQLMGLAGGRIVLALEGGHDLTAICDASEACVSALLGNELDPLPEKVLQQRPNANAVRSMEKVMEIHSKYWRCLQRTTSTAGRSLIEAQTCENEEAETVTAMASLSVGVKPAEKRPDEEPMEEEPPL
Histone deacetylase 1, sequence (Q13547 whole entry): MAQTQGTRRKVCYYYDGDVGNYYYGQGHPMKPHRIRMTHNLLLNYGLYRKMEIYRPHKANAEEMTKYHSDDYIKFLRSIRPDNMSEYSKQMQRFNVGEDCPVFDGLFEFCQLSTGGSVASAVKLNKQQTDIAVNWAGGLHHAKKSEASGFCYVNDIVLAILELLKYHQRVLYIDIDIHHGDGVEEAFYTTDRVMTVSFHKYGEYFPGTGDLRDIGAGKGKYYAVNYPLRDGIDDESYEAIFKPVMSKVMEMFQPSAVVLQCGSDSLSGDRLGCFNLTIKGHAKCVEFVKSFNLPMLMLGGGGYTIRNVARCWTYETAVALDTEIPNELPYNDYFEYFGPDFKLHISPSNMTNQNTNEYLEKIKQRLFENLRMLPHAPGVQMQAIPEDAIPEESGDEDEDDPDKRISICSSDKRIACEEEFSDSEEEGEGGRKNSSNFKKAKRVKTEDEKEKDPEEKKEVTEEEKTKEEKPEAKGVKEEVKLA
Histone deacetylase 3, sequence (O15379 whole entry): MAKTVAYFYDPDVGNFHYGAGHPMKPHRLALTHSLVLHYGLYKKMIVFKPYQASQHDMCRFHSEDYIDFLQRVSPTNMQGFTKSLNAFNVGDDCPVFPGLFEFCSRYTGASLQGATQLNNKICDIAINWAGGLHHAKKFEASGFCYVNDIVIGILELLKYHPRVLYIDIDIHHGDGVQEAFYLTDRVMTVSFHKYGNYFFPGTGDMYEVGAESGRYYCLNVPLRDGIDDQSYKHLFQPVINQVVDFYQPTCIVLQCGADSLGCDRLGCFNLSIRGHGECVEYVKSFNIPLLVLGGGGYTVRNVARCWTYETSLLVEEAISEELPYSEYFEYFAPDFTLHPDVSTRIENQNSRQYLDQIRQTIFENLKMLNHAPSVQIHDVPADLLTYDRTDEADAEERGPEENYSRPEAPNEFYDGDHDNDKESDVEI

| Structure (SMILES) | IC50 (K562) [nM] | IC50 (Histone deacetylase 4; read-out: IC50) [nM] | IC50 (Histone deacetylase 1) [nM] | IC50 (A549) [nM] | IC50 (Histone deacetylase 3) [nM] | IC50 (HCT-116) [nM] | IC50 (Histone deacetylase 8 [1]) [nM] | IC50 ([2]; read-out: IC50) [nM] | IC50 (Histone deacetylase 4) | IC50 [2] | IC50 (U-937) [nM] | IC50 (NB-4) [nM] | IC50 [3] [nM] | IC50 (KARPAS-299) [nM] | IC50 (HL-60) [nM] | IC50 (Kasumi 1) [nM] | IC50 (MV4-11) [nM] | IC50 (OCI-AML-3) [nM] | IC50 (OCI-AML2) [nM] | IC50 (Histone deacetylase 8 [4]) |
| --- | --- | --- | --- | --- | --- | --- | --- | --- | --- | --- | --- | --- | --- | --- | --- | --- | --- | --- | --- | --- |
| CC(C)C(C(=O)Nc1ccc(C(=O)NO)nc1)c1ccccc1 (configuration not stated) | 1040 | 63200 | 1010 | 3750 | 681 | 1310 | 882 | 41 |  |  |  |  |  |  |  |  |  |  |  |  |
| Nc1ccccc1NC(=O)/C=C/c1ccc(NC(=O)Cc2ccc3ccccc3c2)cn1 | 1700 |  | 203 | 7430 | 414 | 3230 | 77100 |  | Not Active | Not Active |  |  |  |  |  |  |  |  |  |  |
| CCC(C(=O)Nc1ccc(/C=C/C(=O)NO)nc1)c1ccccc1 (configuration not stated) |  | 17100 | 77 |  | 36 |  | 104 | 11 |  |  |  |  |  |  |  |  |  |  |  |  |
| Nc1ccccc1NC(=O)c1ccc(CNc2nccc(-c3cccnc3)n2)cc1 [MOCETINOSTAT] |  |  |  |  |  |  |  |  |  |  | 1370 | 406 | 657 | 4150 | 418 | 151 | 190 | 1790 | 1560 |  |
| O=C(Cc1ccc2ccccc2c1)Nc1ccc(C(=O)NO)nc1 |  | 15800 | 94000 |  | 207 |  | 976 | 123 |  |  |  |  |  |  |  |  |  |  |  |  |
| O=C(/C=C/c1ccc(NC(=O)Cc2ccccc2)cn1)NO | 910 | 19300 | 68 | 2980 | 78 | 880 | 183 | 13 |  |  |  |  |  |  |  |  |  |  |  |  |
| Nc1ccccc1NC(=O)/C=C/c1ccc(NC(=O)C(Cc2ccccc2)c2ccccc2)cn1 (configuration not stated) | 1860 |  | 496 | 4300 | 603 | 2740 |  |  | Not Active | Not Active |  |  |  |  |  |  |  |  |  | Not Active |
| CC(C)C(C(=O)Nc1ccc(/C=C/C(=O)Nc2ccccc2N)nc1)c1ccccc1 (configuration not stated) | 2890 |  | 151 | 5690 | 319 | 4380 | 43100 |  | Not Active | Not Active |  |  |  |  |  |  |  |  |  |  |
| CCC(C(=O)Nc1ccc(/C=C/C(=O)Nc2ccccc2N)nc1)c1ccccc1 (configuration not stated) |  |  | 143 |  | 268 |  | 35600 |  | Not Active | Not Active |  |  |  |  |  |  |  |  |  |  |
| Nc1ccccc1NC(=O)/C=C/c1ccc(NC(=O)Cc2ccccc2)cn1 |  |  | 108 |  | 224 |  | 31400 |  | Not Active | Not Active |  |  |  |  |  |  |  |  |  |  |
| Nc1ccccc1NC(=O)/C=C/c1ccc(NC(=O)Cc2cccc3ccccc23)cn1 | 3140 |  | 63 | 9430 | 264 | 8280 |  |  | Not Active | Not Active |  |  |  |  |  |  |  |  |  | Not Active |
